Where two headings read alike, the source gives them in different places.
Legend:
α-adrenergic [1] = target: T1, α-adrenergic (Rattus norvegicus, UniProt P23944); assay: α-adrenergic blocking activity, norepinephrine-induced contraction of helically cut rat aortic strip; settings: 37° C., cumulative doses, read-out: IC50 (concentration causing 50% relaxation)
T1 construct: helically cut rat aortic strip; from tissue; host or cells: rat aorta (helically cut strip)
T1 sequence (P23944 1-561): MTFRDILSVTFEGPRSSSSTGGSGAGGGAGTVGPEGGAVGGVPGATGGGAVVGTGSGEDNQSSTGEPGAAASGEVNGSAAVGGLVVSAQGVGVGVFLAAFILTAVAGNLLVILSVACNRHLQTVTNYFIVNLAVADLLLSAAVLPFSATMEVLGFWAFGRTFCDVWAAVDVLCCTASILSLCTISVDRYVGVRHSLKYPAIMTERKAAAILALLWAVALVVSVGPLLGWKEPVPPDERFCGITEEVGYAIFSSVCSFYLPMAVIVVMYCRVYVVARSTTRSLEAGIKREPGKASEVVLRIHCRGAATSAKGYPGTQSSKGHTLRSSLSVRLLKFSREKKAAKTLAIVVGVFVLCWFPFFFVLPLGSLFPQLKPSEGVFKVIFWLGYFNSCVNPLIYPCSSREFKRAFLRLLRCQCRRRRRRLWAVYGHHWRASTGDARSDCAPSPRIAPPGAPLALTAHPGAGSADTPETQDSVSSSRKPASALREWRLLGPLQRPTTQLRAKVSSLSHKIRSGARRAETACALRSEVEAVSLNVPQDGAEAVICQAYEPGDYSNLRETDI
Description: a) The α-adrenergic blocking activity of the compounds was tested using a helically cut rat aortic strip in a Krebs-Henselheit solution at 37° C., bubbled with a mixture of 95% O2 and 5% CO2. Norepinephrine induced contractions were detected isometrically. The compounds were added in cumulative doses and the relaxing activity was expressed in per cents of the maximum norepinephrine contraction.

α-adrenergic [2] = assay: α-adrenergic blocking activity, postdecapitation muscular contractions in rats; format: in vivo, rat; settings: i.v., 4.2 g/kg (so in the source), 30 minutes prior to decapitation
Description: b) The α-adrenergic blocking activity of compounds VUFB 17951 and VUFB 17959 was also shown in the test of influencing the postdecapitation muscular contractions in rats. The test compounds were administered intravenously in the dose of 4.6 mg/kg for VUFB 17951 and […] for VUFB 17959.

blood pressure [3] = assay: Hypotensive activity, pentobarbital anaesthesized rabbits; format: in vivo, rabbit
From the text: a) The blood pressure of pentobarbital anaesthesized rabbits was registered invasively in arteria femoralis. The average decrease in systolic (SBP) and diastolic (DBP) blood pressure expressed in per cents of the starting blood pressure level after intravenous and oral administration is shown in Tables 3 and 4.

blood pressure [4] = assay: Hypotensive activity, pentobarbital anaesthesized dogs; format: in vivo, dog
From the text: b) The blood pressure of pentobarbital anaesthesized dogs was registered invasively in arteria femoralis. The average decrease in systolic (SBP) arid diastolic (DBP) blood pressure expressed in per cents of the starting blood pressure level after intravenous and oral administration is shown in Tables 5 and 6.

[5] = system: rat peripheral venous thrombosis; assay: Antithrombotic activity, rat peripheral venous thrombosis in closed abdominal part of vena cava; format: in vivo; settings: rats, read-out: statistically significant effective dose (mass of thrombi)
Description: The antithrombotic activity of the test compounds was established using the model of rat peripheral venous thrombosis in a closed abdominal part of vena cava. The thrombus was induced by intravenous administration of hypotonic solution of sodium chloride. The thrombus was freed 10 minutes after induction and weighted. The mass of thrombi in control animals was compared to the mass of thrombi of animals administered by the test compound. The statistically significant effective dose for compound VUFB 17951 was 0.5 mg/kg intravenously and 5 mg/kg orally and for the compound VUFB 17959 0.25 mg/kg and 1.0 mg/kg, respectively. The corresponding dose of a standard (Cilostazol, generic name, Merck index, 11th Edition, 2277) was 25 mg/kg orally.

[6] = system: urinary bladder sphincter; assay: Effect on the opening pressure of the urinary bladder sphincter; format: in vivo, rat; settings: rats, compared with prazosin or terazosin
intraocular pressure = assay: Effect on the intraocular pressure; format: in vivo, rabbit; settings: rabbits, topical intraocular administration
[7] = p.o., 10.0 mg/kg, value 1 of 5 (heads 30/60/120/180 min)
[8] = p.o., 10.0 mg/kg, value 2 of 5 (heads 30/60/120/180 min)
[9] = p.o., 10.0 mg/kg, value 3 of 5 (heads 30/60/120/180 min)
[10] = p.o., 10.0 mg/kg, value 4 of 5 (heads 30/60/120/180 min)
[11] = p.o., 10.0 mg/kg, value 5 of 5 (heads 30/60/120/180 min)
[12] = p.o., 50.0 mg/kg, value 1 of 5 (heads 30/60/120/180 min)
[13] = p.o., 50.0 mg/kg, value 2 of 5 (heads 30/60/120/180 min)
[14] = p.o., 50.0 mg/kg, value 3 of 5 (heads 30/60/120/180 min)
[15] = p.o., 50.0 mg/kg, value 4 of 5 (heads 30/60/120/180 min)
[16] = p.o., 50.0 mg/kg, value 5 of 5 (heads 30/60/120/180 min)
[17] = i.v., 0.45 mg/kg, value 1 of 5 (heads 5/30/60/180 min; probably 1 min)
[18] = i.v., 0.45 mg/kg, value 2 of 5 (heads 5/30/60/180 min; probably 5 min)
[19] = i.v., 0.45 mg/kg, value 3 of 5 (heads 5/30/60/180 min; probably 30 min)
[20] = i.v., 0.45 mg/kg, value 4 of 5 (heads 5/30/60/180 min; probably 60 min)
[21] = i.v., 0.45 mg/kg, value 5 of 5 (heads 5/30/60/180 min; probably 180 min)
[22] = i.v., 4.5 mg/kg, value 1 of 5 (heads 5/30/60/180 min; probably 1 min)
[23] = i.v., 4.5 mg/kg, value 2 of 5 (heads 5/30/60/180 min; probably 5 min)
[24] = i.v., 4.5 mg/kg, value 3 of 5 (heads 5/30/60/180 min; probably 30 min)
[25] = i.v., 4.5 mg/kg, value 4 of 5 (heads 5/30/60/180 min; probably 60 min)
[26] = i.v., 4.5 mg/kg, value 5 of 5 (heads 5/30/60/180 min; probably 180 min)

## Cc1ccccc1C(C#N)(CCCNCC1COc2ccccc2O1)C(C)C (racemic) [VUFB 17959, 5-(2,3-dihydro-1,4-benzodioxin-2-ylmethylamino)-2-isopropyl-2-(2-methylphenyl) valeronitrile]
α-adrenergic [1]
  IC50: 25 µM
α-adrenergic [2]
  decrease in number of postdecapitation contractions: highly significant decrease in number of postdecapitation contractions
Blood pressure [3]; i.v., 1.0 mg/kg, 1 min
  decrease in diastolic blood pressure (DBP): -51 per cents
  decrease in systolic blood pressure (SBP): -47 per cents
Blood pressure [3]; i.v., 1.0 mg/kg, 5 min
  decrease in diastolic blood pressure (DBP): -22 per cents
  decrease in systolic blood pressure (SBP): -23 per cents
Blood pressure [3]; i.v., 1.0 mg/kg, 30 min
  decrease in diastolic blood pressure (DBP): -21 per cents
  decrease in systolic blood pressure (SBP): -22 per cents
Blood pressure [3]; i.v., 1.0 mg/kg, 60 min
  decrease in diastolic blood pressure (DBP): -25 per cents
  decrease in systolic blood pressure (SBP): -14 per cents
Blood pressure [3]; i.v., 1.0 mg/kg, 180 min
  decrease in diastolic blood pressure (DBP): -18 per cents
  decrease in systolic blood pressure (SBP): -8 per cents
Blood pressure [3]; i.v., 5.0 mg/kg, 1 min
  decrease in diastolic blood pressure (DBP): -69 per cents
  decrease in systolic blood pressure (SBP): -60 per cents
Blood pressure [3]; i.v., 5.0 mg/kg, 5 min
  decrease in diastolic blood pressure (DBP): -39 per cents
  decrease in systolic blood pressure (SBP): -35 per cents
Blood pressure [3]; i.v., 5.0 mg/kg, 30 min
  decrease in diastolic blood pressure (DBP): -31 per cents
  decrease in systolic blood pressure (SBP): -26 per cents
Blood pressure [3]; i.v., 5.0 mg/kg, 60 min
  decrease in diastolic blood pressure (DBP): -29 per cents
  decrease in systolic blood pressure (SBP): -27 per cents
Blood pressure [3]; i.v., 5.0 mg/kg, 180 min
  decrease in diastolic blood pressure (DBP): -33 per cents
  decrease in systolic blood pressure (SBP): -25 per cents
Blood pressure [3]; [7]
  decrease in diastolic blood pressure (DBP): -2 per cents
  decrease in systolic blood pressure (SBP): -2 per cents
Blood pressure [3]; [8]
  decrease in diastolic blood pressure (DBP): 0 per cents
  decrease in systolic blood pressure (SBP): -3 per cents
Blood pressure [3]; [9]
  decrease in diastolic blood pressure (DBP): -3 per cents
  decrease in systolic blood pressure (SBP): -4 per cents
Blood pressure [3]; [10]
  decrease in diastolic blood pressure (DBP): -8 per cents
  decrease in systolic blood pressure (SBP): -1 per cents
Blood pressure [3]; [11]
  decrease in diastolic blood pressure (DBP): -10 per cents
  decrease in systolic blood pressure (SBP): +3 per cents
Blood pressure [3]; [12]
  decrease in diastolic blood pressure (DBP): -6 per cents
  decrease in systolic blood pressure (SBP): -9 per cents
Blood pressure [3]; [13]
  decrease in diastolic blood pressure (DBP): -12 per cents
  decrease in systolic blood pressure (SBP): -18 per cents
Blood pressure [3]; [14]
  decrease in diastolic blood pressure (DBP): -18 per cents
  decrease in systolic blood pressure (SBP): -26 per cents
Blood pressure [3]; [15]
  decrease in diastolic blood pressure (DBP): -18 per cents
  decrease in systolic blood pressure (SBP): -29 per cents
Blood pressure [3]; [16]
  decrease in diastolic blood pressure (DBP): -18 per cents
  decrease in systolic blood pressure (SBP): -31 per cents
Blood pressure [4]; [17]
  decrease in diastolic blood pressure (DBP): -52 per cents
  decrease in systolic blood pressure (SBP): -16 per cents
Blood pressure [4]; [18]
  decrease in diastolic blood pressure (DBP): -23 per cents
  decrease in systolic blood pressure (SBP): -23 per cents
Blood pressure [4]; [19]
  decrease in diastolic blood pressure (DBP): -16 per cents
  decrease in systolic blood pressure (SBP): -14 per cents
Blood pressure [4]; [20]
  decrease in diastolic blood pressure (DBP): -16 per cents
  decrease in systolic blood pressure (SBP): -13 per cents
Blood pressure [4]; [21]
  decrease in diastolic blood pressure (DBP): -2 per cents
  decrease in systolic blood pressure (SBP): -6 per cents
Blood pressure [4]; [22]
  decrease in diastolic blood pressure (DBP): -63 per cents
  decrease in systolic blood pressure (SBP): -43 per cents
Blood pressure [4]; [23]
  decrease in diastolic blood pressure (DBP): -46 per cents
  decrease in systolic blood pressure (SBP): -43 per cents
Blood pressure [4]; [24]
  decrease in diastolic blood pressure (DBP): -29 per cents
  decrease in systolic blood pressure (SBP): -31 per cents
Blood pressure [4]; [25]
  decrease in diastolic blood pressure (DBP): -25 per cents
  decrease in systolic blood pressure (SBP): -23 per cents
Blood pressure [4]; [26]
  decrease in diastolic blood pressure (DBP): -14 per cents
  decrease in systolic blood pressure (SBP): -17 per cents
Blood pressure [4]; p.o., 4.2 mg/kg, 15 min
  decrease in diastolic blood pressure (DBP): -5 per cents
  decrease in systolic blood pressure (SBP): -5 per cents
Blood pressure [4]; p.o., 4.2 mg/kg, 30 min
  decrease in diastolic blood pressure (DBP): -20 per cents
  decrease in systolic blood pressure (SBP): -16 per cents
Blood pressure [4]; p.o., 4.2 mg/kg, 60 min
  decrease in diastolic blood pressure (DBP): -20 per cents
  decrease in systolic blood pressure (SBP): -18 per cents
Blood pressure [4]; p.o., 4.2 mg/kg, 120 min
  decrease in diastolic blood pressure (DBP): -20 per cents
  decrease in systolic blood pressure (SBP): -20 per cents
Blood pressure [4]; p.o., 4.2 mg/kg, 300 min
  decrease in diastolic blood pressure (DBP): -21 per cents
  decrease in systolic blood pressure (SBP): -23 per cents
[5]; iv, intravenously
  minimal effective dose: 0.25 mg/kg
[5]; po, orally
  minimal effective dose: 1 mg/kg
[6]
  duration of action on opening pressure of the urinary bladder sphincter: longer duration of action
[6]; corresponding doses
  lowering of the opening pressure of the urinary bladder sphincter: lowered the opening pressure of the urinary bladder sphincter of rats in corresponding doses in the same extent as prazosin
Intraocular pressure
  lowering of the intraocular pressure: lowered significantly the intraocular pressure
